Reference: US12552772B2, “2-pyrazole anilines and related analogs for inhibiting YAP/TAZ-TEAD” (KATHOLIEKE UNIVERSITEIT LEUVEN, priority 2021, dated 2026)

Each molecule was assayed on YAP/TAZ-TEAD transcription (assay: Reporter gene assay for measuring the inhibition of YAP/TAZ-TEAD transcription (TEAD-responsive element luciferase reporter in Hek293T cells)). Conditions: Homo sapiens, HEK-293T, 24 hours incubation.
Type: cell-based
In short: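 Percent inhibition, scaled between vehicle (0%) and a positive control inhibitor (100%), came from SteadyLite luciferase signal after 24 h compound exposure at 37 °C/5% CO2. Cells: Hek293T transiently carrying a TEAD-responsive luciferase reporter; EC50 derived.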

Compound	EC50 [nM]
C=CC(=O)NCc1ccc(-c2ccc(F)cc2)cc1-c1cccnc1 [compound 164, N-((4′-fluoro-3-(pyridin-3-yl)-[1,1′-biphenyl]-4-yl)methyl)acrylamide]	< 1000
C=CC(=O)NCc1ccc(-c2ccc(C(F)(F)F)cc2)cc1-c1cnn(C2CC2)c1 [compound 168, N-((3-(1-cyclopropyl-1H-pyrazol-4-yl)-4′-(trifluoromethyl)-[1,1′-biphenyl]-4-yl)methyl)acrylamide]	< 1000
C=CC(=O)NCc1ccc(-c2ccc(F)cc2)cc1-c1ccnn1C(F)F [compound 171, N-((3-(1-(difluoromethyl)-1H-pyrazol-5-yl)-4′-fluoro-[1,1′-biphenyl]-4-yl)methyl)acrylamide]	1000 to 20000
C=CC(=O)NCc1ccc(-c2ccc(C(F)(F)F)cc2)cc1-c1cnn(C(F)F)c1 [compound 173, N-((3-(1-(difluoromethyl)-1H-pyrazol-4-yl)-4′-(trifluoromethyl)-[1,1′-biphenyl]-4-yl)methyl)acrylamide]	< 1000
C=CC(=O)NCc1ccc(N2CCC(C(F)(F)F)CC2)cc1-c1ccn(C)n1 [compound 181, N-(2-(1-methyl-1H-pyrazol-3-yl)-4-(4-(trifluoromethyl)piperidin-1-yl)benzyl)acrylamide]	< 1000
C=CC(=O)NCc1ccc(-c2ccc(F)cc2)cc1C1CCN(C)C1 (centres unmarked) [compound 183, N-((4′-fluoro-3-(1-methylpyrrolidin-3-yl)-[1,1′-biphenyl]-4-yl)methyl)acrylamide]	1000 to 20000
C=CC(=O)NCc1ccc(-c2ccc(F)cc2)cc1-c1cnn(C(F)F)n1 [compound 186, N-((3-(2-(difluoromethyl)-2H-1,2,3-triazol-4-yl)-4′-fluoro-[1,1′-biphenyl]-4-yl)methyl)acrylamide]	< 1000
C=CC(=O)NCc1ccc(-c2ccc(F)cc2)cc1-n1ccnn1 [compound 191, N-((4′-fluoro-3-(1H-1,2,3-triazol-1-yl)-[1,1′-biphenyl]-4-yl)methyl)acrylamide]	< 1000
C=CC(=O)NCc1c(F)cc(-c2ccc(C(F)(F)F)cc2)cc1-c1ccn(C)n1 [compound 192, N-((3-fluoro-5-(1-methyl-1H-pyrazol-3-yl)-4′-(trifluoromethyl)-[1,1′-biphenyl]-4-yl)methyl)acrylamide]	< 1000
C=CC(=O)NCc1ccc(-c2ccc(F)cc2)nc1-c1nnn(C(F)F)n1 [compound 199, N-((2-(2-(difluoromethyl)-2H-tetrazol-5-yl)-6-(4-fluorophenyl)pyridin-3-yl)methyl)acrylamide]	< 1000
C=CC(=O)NCc1ccc(-c2ccc(F)cc2)nc1-c1nn[nH]n1 [compound 200, N-((6-(4-fluorophenyl)-2-(2H-tetrazol-5-yl)pyridin-3-yl)methyl)acrylamide]	> 20000
C=CC(=O)NCc1cnc(-c2ccc(C(F)(F)F)cc2)cc1-c1ccn(C(F)F)n1 [compound 209, N-((4-(1-(difluoromethyl)-1H-pyrazol-3-yl)-6-(4-(trifluoromethyl)phenyl)pyridin-3-yl)methyl)acrylamide]	< 1000
C=CC(=O)NCc1cnc(-c2ccc(Cl)cc2)cc1-c1ccn(C(F)F)n1 [compound 210, N-((6-(4-chlorophenyl)-4-(1-(difluoromethyl)-1H-pyrazol-3-yl)pyridin-3-yl)methyl)acrylamide]	< 1000
CCC(=O)NCc1cnc(-c2cccc(F)c2)cc1-c1ccn(C(F)F)n1 [compound 212, N-((4-(1-(difluoromethyl)-1H-pyrazol-3-yl)-6-(3-fluorophenyl)pyridin-3-yl)methyl)propionamide]	1000 to 20000
CCC(=O)NCc1cnc(-c2cccc(Cl)c2)cc1-c1ccn(C(F)F)n1 [compound 214, N-((6-(3-chlorophenyl)-4-(1-(difluoromethyl)-1H-pyrazol-3-yl)pyridin-3-yl)methyl)propionamide]	> 20000
CCC(=O)NCc1cnc(-c2cccc(C(F)(F)F)c2)cc1-c1ccn(C(F)F)n1 [compound 216, N-((4-(1-(difluoromethyl)-1H-pyrazol-3-yl)-6-(3-(trifluoromethyl)phenyl)pyridin-3-yl)methyl)propionamide]	> 20000
C=CC(=O)NCc1cnc(-c2ccc(C(F)F)cc2)cc1-c1ccn(C(F)F)n1 [compound 217, N-((4-(1-(difluoromethyl)-1H-pyrazol-3-yl)-6-(4-(difluoromethyl)phenyl)pyridin-3-yl)methyl)acrylamide]	< 1000
C=CC(=O)NCc1cnc(-c2ccc(C#N)cc2)cc1-c1ccn(C(F)F)n1 [compound 219, N-((6-(4-cyanophenyl)-4-(1-(difluoromethyl)-1H-pyrazol-3-yl)pyridin-3-yl)methyl)acrylamide]	< 1000
C=CC(=O)NCc1cnc(-c2cccc(C#N)c2)cc1-c1ccn(C(F)F)n1 [compound 220, N-((6-(3-cyanophenyl)-4-(1-(difluoromethyl)-1H-pyrazol-3-yl)pyridin-3-yl)methyl)acrylamide]	< 1000
C=CC(=O)NCc1cnc(-c2ccn(C(F)F)n2)cc1N1CCC(F)(F)CC1 [compound 222, N-((6-(1-(difluoromethyl)-1H-pyrazol-3-yl)-4-(4,4-difluoropiperidin-1-yl)pyridin-3-yl)methyl)acrylamide]	1000 to 20000
CCC(=O)NCc1cc(-c2ccc(F)cc2)cc(-c2ccn(C(F)F)n2)n1 [compound 226, N-((6-(1-(difluoromethyl)-1H-pyrazol-3-yl)-4-(4-fluorophenyl)pyridin-2-yl)methyl)propionamide]	< 1000
CCC(=O)NCc1cc(=O)n(-c2ccc(F)cc2)cc1-c1ccn(C)n1 [compound 236, N-((1-(4-fluorophenyl)-5-(1-methyl-1H-pyrazol-3-yl)-2-oxo-1,2-dihydropyridin-4-yl)methyl)propionamide]	1000 to 20000
CCC(=O)NCc1ccc(-c2ccc(F)cc2)cc1-n1ccc(C)n1 [compound 242, N-((4′-fluoro-3-(3-methyl-1H-pyrazol-1-yl)-[1,1′-biphenyl]-4-yl)methyl)propionamide]	> 20000

Next, values leading:

EC50 [nM]	Compound
< 1000	C=CC(=O)NCc1ccc(-c2ccc(F)cc2)cc1-c1ccn(CC(F)(F)F)n1 [compound 160, N-((4′-fluoro-3-(1-(2,2,2-trifluoroethyl)-1H-pyrazol-3-yl)-[1,1′-biphenyl]-4-yl)methyl)acrylamide]
> 20000	C=CC(=O)NCc1ccc(-c2ccc(F)cc2)cc1-c1ccnn1C [compound 163, N-((4′-fluoro-3-(1-methyl-1H-pyrazol-5-yl)-[1,1′-biphenyl]-4-yl)methyl)acrylamide]
< 1000	C=CC(=O)NCc1ccc(-c2ccc(F)cc2)cc1-c1ccn(C2(C)CC2)n1 [compound 175, N-((4′-fluoro-3-(1-(1-methylcyclopropyl)-1H-pyrazol-3-yl)-[1,1′-biphenyl]-4-yl)methyl)acrylamide]
< 1000	C=CC(=O)NCc1ccc([C@H]2CC[C@H](C(F)(F)F)CC2)cc1-c1ccn(C)n1 [compound 178, trans-N-(2-(1-methyl-1H-pyrazol-3-yl)-4-(4-(trifluoromethyl)cyclohexyl)benzyl)acrylamide]
1000 to 20000	C=CC(=O)NCc1ccc(-c2ccc(F)cc2)cc1-c1nnnn1C [compound 189, N-((4′-fluoro-3-(1-methyl-1H-tetrazol-5-yl)-[1,1′-biphenyl]-4-yl)methyl)acrylamide]
< 1000	C=CC(=O)NCc1ccc(-c2ccc(F)cc2)nc1-c1ccn(CC2CC2)n1 [compound 195, N-((2-(1-(cyclopropylmethyl)-1H-pyrazol-3-yl)-6-(4-fluorophenyl)pyridin-3-yl)methyl)acrylamide]
< 1000	C=CC(=O)NCc1ccc(-c2ccc(F)cc2)nc1-c1ccn(C2CC2)n1 [compound 196, N-((2-(1-cyclopropyl-1H-pyrazol-3-yl)-6-(4-fluorophenyl)pyridin-3-yl)methyl)acrylamide]
1000 to 20000	C=CC(=O)NCc1ccc(-c2ccc(F)cc2)nc1-c1ccnn1C1CC1 [compound 197, N-((2-(1-cyclopropyl-1H-pyrazol-5-yl)-6-(4-fluorophenyl)pyridin-3-yl)methyl)acrylamide]
< 1000	C=CC(=O)NCc1ncc(-c2ccc(F)cc2)cc1-c1nnn(C(F)F)n1 [compound 204, N-((3-(2-(difluoromethyl)-2H-tetrazol-5-yl)-5-(4-fluorophenyl)pyridin-2-yl)methyl)acrylamide]
> 20000	CN(C)C/C=C/C(=O)NCc1cnc(-c2ccc(F)cc2)cc1-c1ccn(C(F)F)n1 [compound 208, (E)-N-((4-(1-(difluoromethyl)-1H-pyrazol-3-yl)-6-(4-fluorophenyl)pyridin-3-yl)methyl)-4-(dimethylamino)but-2-enamide]
< 1000	C=CC(=O)NCc1cc(-c2ccn(C(F)F)n2)cc(-c2ccc(F)cc2)n1 [compound 218, N-((4-(1-(difluoromethyl)-1H-pyrazol-3-yl)-6-(4-fluorophenyl)pyridin-2-yl)methyl)acrylamide]
< 1000	C=CC(=O)NCc1cnc(-c2ccc(F)cc2)cc1-c1cnn(C(F)F)n1 [compound 230, N-((4-(2-(difluoromethyl)-2H-1,2,3-triazol-4-yl)-6-(4-fluorophenyl)pyridin-3-yl)methyl)acrylamide]
< 1000	CCC(=O)NCc1cnc(-c2ccc(F)cc2)cc1-c1cc2n(n1)CCCC2 [compound 232, N-((6-(4-fluorophenyl)-4-(4,5,6,7-tetrahydropyrazolo[1,5-a]pyridin-2-yl)pyridin-3-yl)methyl)propionamide]
> 20000	Cn1ccc(-c2cn(-c3ccc(F)cc3)c(=O)cc2CNS(C)(=O)=O)n1 [compound 237, N-((1-(4-fluorophenyl)-5-(1-methyl-1H-pyrazol-3-yl)-2-oxo-1,2-dihydropyridin-4-yl)methyl)methanesulfonamide]
> 20000	CNS(=O)(=O)NCc1cc(=O)n(-c2ccc(F)cc2)cc1-c1ccn(C)n1 [compound 238, N-methyl, N′-((1-(4-fluorophenyl)-5-(1-methyl-1H-pyrazol-3-yl)-2-oxo-1,2-dihydropyridin-4-yl)methyl)sulfamide]
